Measurements: patent US20200024278A1, “COMPOSITION COMPRISING ANTIBIOTIC COMPOUND AND AN HETEROCYCLIC COMPOUND AND THEIR USE IN PREVENTING OR TREATING BACTERIAL INFECTIONS” (MUTABILIS, priority 2016, published 2020)

Columns and labels:
Test in all cases: MIC, broth microdilution (CLSI), substance alone or ATB combined with compound at 4 or 8 μg/mL
KPN BAA-1898 = assay type: cell-based, K. pneumoniae; conditions: KPN BAA-1898
Outline: (§1)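 Per CLSI-M7-A7, MICs are determined in cation-adjusted Mueller-Hinton broth with a final inoculum of 5·10^5 CFU/mL. Plates incubate 16-20 h at 35° C in air and are read by eye. Fosfomycin assays carry 25 μg/ml glucose-6-phosphate.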

KPN 6299 = assay type: cell-based, K. pneumoniae
Outline: as §1

SPN 49619 = assay type: cell-based, S. pneumoniae; conditions: SPN 49619
Outline: as §1

PAE 105250 = assay type: cell-based, P. aeruginosa; conditions: PAE 105250
Outline: as §1

PAE UFR48 = assay type: cell-based, P. aeruginosa; conditions: PAE UFR48
Outline: as §1

PAE UFR90 = assay type: cell-based, P. aeruginosa; conditions: PAE UFR90
Outline: as §1

- MIC ATB combined with Example 11 @8 μg/ml (KPN BAA-1898; with Example 11 at 8 μg/ml): <0.031 µg/mL
- MIC ATB combined with Example 12 @8 μg/ml (KPN BAA-1898; with Example 12 at 8 μg/ml): <0.031 µg/mL
- MIC ATB combined with Example 13 @8 μg/ml (KPN BAA-1898; with Example 13 at 8 μg/ml): 1 µg/mL
- MIC ATB combined with Example 14 @8 μg/ml (KPN BAA-1898; with Example 14 at 8 μg/ml): <0.031 µg/mL
- MIC ATB combined with Example 15 @4 μgml (KPN BAA-1898; with Example 15 at 4 μg/ml): <0.031 µg/mL
- MIC ATB combined with Example 16 @4 μg/ml (KPN BAA-1898; with Example 16 at 4 μg/ml): <0.031 µg/mL
- MIC ATB alone (KPN 6299; antibiotic alone): 1 µg/mL
- MIC ATB combined with Example 1 @8 μg/ml (KPN 6299; with Example 1 @8 μg/ml): 1 µg/mL
- MIC ATB combined with Example 1 @8 μg/ml (KPN 6299; with Example 1 at 8 μg/ml): 1 µg/mL
- MIC ATB combined with Example 7 @8 μgml (KPN 6299; with Example 7 at 8 μg/ml): 1 µg/mL
- MIC ATB combined with Example 9 @4 μg/ml (KPN 6299; with Example 9 @4 μg/ml): 0.063 µg/mL
- MIC ATB combined with Example 9 @4 μg/ml (KPN 6299; with Example 9 at 4 μg/ml): 0.063 µg/mL
- MIC ATB combined with Example 11 @8 μg/ml (KPN 6299; with Example 11 at 8 μg/ml): <0.031 µg/mL
- MIC ATB combined with Example 12 @8 μg/ml (KPN 6299; with Example 12 at 8 μg/ml): <0.031 µg/mL
- MIC ATB combined with Example 13 @8 μg/ml (KPN 6299; with Example 13 at 8 μg/ml): 0.5 µg/mL
- MIC ATB combined with Example 14 @8 μg/ml (KPN 6299; with Example 14 at 8 μg/ml): <0.031 µg/mL
- MIC ATB combined with Example 15 @4 μgml (KPN 6299; with Example 15 at 4 μg/ml): <0.031 µg/mL
- MIC ATB combined with Example 16 @4 μg/ml (KPN 6299; with Example 16 at 4 μg/ml): <0.031 µg/mL
- MIC ATB alone (SPN 49619; antibiotic alone): 0.125 µg/mL
- MIC ATB combined with Example 1 @8 μg/ml (SPN 49619; with Example 1 @8 μg/ml): 0.125 µg/mL
- MIC ATB combined with Example 1 @8 μg/ml (SPN 49619; with Example 1 at 8 μg/ml): 0.125 µg/mL
- MIC ATB combined with Example 7 @8 μgml (SPN 49619; with Example 7 at 8 μg/ml): 0.063 µg/mL
- MIC ATB combined with Example 9 @4 μg/ml (SPN 49619; with Example 9 @4 μg/ml): <0.031 µg/mL
- MIC ATB combined with Example 9 @4 μg/ml (SPN 49619; with Example 9 at 4 μg/ml): <0.031 µg/mL
- MIC ATB combined with Example 11 @8 μg/ml (SPN 49619; with Example 11 at 8 μg/ml): <=0.031 μg/mL
- MIC ATB combined with Example 12 @8 μg/ml (SPN 49619; with Example 12 at 8 μg/ml): <0.031 µg/mL
- MIC ATB combined with Example 13 @8 μg/ml (SPN 49619; with Example 13 at 8 μg/ml): 0.063 µg/mL
- MIC ATB combined with Example 14 @8 μg/ml (SPN 49619; with Example 14 at 8 μg/ml): <0.031 µg/mL
- MIC ATB combined with Example 15 @4 μgml (SPN 49619; with Example 15 at 4 μg/ml): <=0.031 μg/mL
- MIC ATB combined with Example 16 @4 μg/ml (SPN 49619; with Example 16 at 4 μg/ml): <0.031 µg/mL
- MIC ATB alone (PAE 105250; antibiotic alone): 8 µg/mL
- MIC ATB combined with Example 1 @8 μg/ml (PAE 105250; with Example 1 @8 μg/ml): 0.5 µg/mL
- MIC ATB combined with Example 1 @8 μg/ml (PAE 105250; with Example 1 at 8 μg/ml): 0.5 µg/mL
- MIC ATB combined with Example 7 @8 μgml (PAE 105250; with Example 7 at 8 μg/ml): 32 µg/mL
- MIC ATB combined with Example 9 @4 μg/ml (PAE 105250; with Example 9 @4 μg/ml): 8 µg/mL
- MIC ATB combined with Example 9 @4 μg/ml (PAE 105250; with Example 9 at 4 μg/ml): 8 µg/mL
- MIC ATB combined with Example 11 @8 μg/ml (PAE 105250; with Example 11 at 8 μg/ml): 8 µg/mL
- MIC ATB combined with Example 12 @8 μg/ml (PAE 105250; with Example 12 at 8 μg/ml): 8 µg/mL
- MIC ATB combined with Example 13 @8 μg/ml (PAE 105250; with Example 13 at 8 μg/ml): 8 µg/mL
- MIC ATB combined with Example 14 @8 μg/ml (PAE 105250; with Example 14 at 8 μg/ml): 8 µg/mL
- MIC ATB combined with Example 15 @4 μgml (PAE 105250; with Example 15 at 4 μg/ml): 8 µg/mL
- MIC ATB combined with Example 16 @4 μg/ml (PAE 105250; with Example 16 at 4 μg/ml): 8 µg/mL
- MIC ATB alone (PAE UFR48; antibiotic alone): 32 µg/mL
- MIC ATB combined with Example 1 @8 μg/ml (PAE UFR48; with Example 1 @8 μg/ml): <0.031 µg/mL
- MIC ATB combined with Example 1 @8 μg/ml (PAE UFR48; with Example 1 at 8 μg/ml): <0.031 µg/mL
- MIC ATB combined with Example 7 @8 μgml (PAE UFR48; with Example 7 at 8 μg/ml): >32 µg/mL
- MIC ATB combined with Example 9 @4 μg/ml (PAE UFR48; with Example 9 @4 μg/ml): 32 µg/mL
- MIC ATB combined with Example 9 @4 μg/ml (PAE UFR48; with Example 9 at 4 μg/ml): 32 µg/mL
- MIC ATB combined with Example 11 @8 μg/ml (PAE UFR48; with Example 11 at 8 μg/ml): 32 µg/mL
- MIC ATB combined with Example 12 @8 μg/ml (PAE UFR48; with Example 12 at 8 μg/ml): 32 µg/mL
- MIC ATB combined with Example 13 @8 μg/ml (PAE UFR48; with Example 13 at 8 μg/ml): 32 µg/mL
- MIC ATB combined with Example 14 @8 μg/ml (PAE UFR48; with Example 14 at 8 μg/ml): 32 µg/mL
- MIC ATB combined with Example 15 @4 μgml (PAE UFR48; with Example 15 at 4 μg/ml): 32 µg/mL
- MIC ATB combined with Example 16 @4 μg/ml (PAE UFR48; with Example 16 at 4 μg/ml): 32 µg/mL
- MIC ATB alone (PAE UFR90; antibiotic alone): 16 µg/mL
- MIC ATB combined with Example 1 @8 μg/ml (PAE UFR90; with Example 1 @8 μg/ml): <0.031 µg/mL
- MIC ATB combined with Example 1 @8 μg/ml (PAE UFR90; with Example 1 at 8 μg/ml): <0.031 µg/mL
- MIC ATB combined with Example 7 @8 μgml (PAE UFR90; with Example 7 at 8 μg/ml): 32 µg/mL
- MIC ATB combined with Example 9 @4 μg/ml (PAE UFR90; with Example 9 @4 μg/ml): 16 µg/mL
- MIC ATB combined with Example 9 @4 μg/ml (PAE UFR90; with Example 9 at 4 μg/ml): 16 µg/mL
- MIC ATB combined with Example 11 @8 μg/ml (PAE UFR90; with Example 11 at 8 μg/ml): 16 µg/mL
- MIC ATB combined with Example 12 @8 μg/ml (PAE UFR90; with Example 12 at 8 μg/ml): 16 µg/mL
- MIC ATB combined with Example 13 @8 μg/ml (PAE UFR90; with Example 13 at 8 μg/ml): 16 µg/mL
- MIC ATB combined with Example 14 @8 μg/ml (PAE UFR90; with Example 14 at 8 μg/ml): 16 µg/mL
- MIC ATB combined with Example 15 @4 μgml (PAE UFR90; with Example 15 at 4 μg/ml): 16 µg/mL
- MIC ATB combined with Example 16 @4 μg/ml (PAE UFR90; with Example 16 at 4 μg/ml): 16 µg/mL
Structure (SMILES): CN(C)c1cc(NC(=O)CNC(C)(C)C)c(O)c2c1C[C@H]1C[C@H]3[C@H](N(C)C)C(O)=C(C(N)=O)C(=O)[C@@]3(O)C(O)=C1C2=O [TGC]
